Assay results as given in patent US10316017B2, “COT modulators and methods of use thereof” (Gilead Sciences, Inc., priority 2015, dated 2019).

Each compound was assayed against T1, human Cot catalytic domain (30-397 amino acids) (Homo sapiens, UniProt P41279) (assay: High Throughput Cot Biochemical Assay (KinEASE TR-FRET)). Conditions: Cot KinEASE TR-FRET, 400 μM ATP; read-out: IC50 HTRF.
T1 construct: Purified recombinant human Cot catalytic domain (30-397 amino acids) was purchased from Cama Biosciences; purchased Cama Biosciences (so in the source)
T1 sequence (P41279 30-397): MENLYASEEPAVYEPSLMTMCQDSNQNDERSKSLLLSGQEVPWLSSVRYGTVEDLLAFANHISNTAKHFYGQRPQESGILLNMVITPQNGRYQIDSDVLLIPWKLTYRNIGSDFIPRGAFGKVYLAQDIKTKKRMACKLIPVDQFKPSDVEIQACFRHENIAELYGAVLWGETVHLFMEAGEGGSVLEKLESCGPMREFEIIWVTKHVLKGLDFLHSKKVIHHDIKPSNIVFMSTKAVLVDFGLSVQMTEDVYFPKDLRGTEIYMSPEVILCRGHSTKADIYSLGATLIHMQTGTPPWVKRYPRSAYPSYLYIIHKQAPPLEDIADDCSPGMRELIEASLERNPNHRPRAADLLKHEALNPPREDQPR
Experimental: Example 61: High Throughput Cot Biochemical Assay
In this assay, Cot-catalyzes the phosphorylation of a XL665-labeled peptide substrate. Europium conjugated phospho-tyrosine specific antibody binds the resulting phosphorylated peptide. […] Purified recombinant human Cot catalytic domain (30-397 amino acids) was purchased from Cama Biosciences. […] The standard 5 μL reaction mixture contained 400 μM ATP, 1 μM STK3 peptide, 5 nM of Cot in reaction buffer (10 mM MOPS, pH 7.0, 0.02% NaN3, 0.5 mg/mL BSA, 10 mM MgOAc, 1 mM DTT, 0.025% NP-40, 1.5% glycerol) and 0.1% DMSO.

Compound | IC50
Cc1cc2ncc(C#N)c(Nc3ccc(F)c(Cl)c3)c2cc1NC(c1ccc(F)cc1)c1cn(C)nn1 (stereo not shown) [Example 773, 4-((3-chloro-4-fluorophenyl)amino)-6-(((4-fluorophenyl)(1-methyl-1H-1,2,3-triazol-4-yl)methyl)amino)-7-methylquinoline-3-carbonitrile] | 1860 nM
N#Cc1cnc2c(Cl)cc(N[C@@H](c3ccccc3)c3cn(C4CC5(CNC5)C4)nn3)cc2c1Nc1ccc(F)c(Cl)c1 [Example 775, (S)-6-(((1-(2-azaspiro[3.3]heptan-6-yl)-1H-1,2,3-triazol-4-yl)(phenyl)methyl)amino)-8-chloro-4-((3-chloro-4-fluorophenyl)amino)quinoline-3-carbonitrile] | 5 nM
N#Cc1cnc2c(Cl)cc(NC(c3ccc(F)cc3)c3nccs3)cc2c1Nc1ccc(F)c(Cl)c1 (stereo not shown) [Example 782, 8-chloro-4-((3-chloro-4-fluorophenyl)amino)-6-(((4-fluorophenyl)(thiazol-2-yl)methyl)amino)quinoline-3-carbonitrile] | 444 nM
N#Cc1cnc2c(Cl)cc(NC(c3ccc(F)cc3)c3ncco3)cc2c1Nc1ccc(F)c(Cl)c1 (stereo not shown) [Example 783, 8-chloro-4-((3-chloro-4-fluorophenyl)amino)-6-(((4-fluorophenyl)(oxazol-2-yl)methyl)amino)quinoline-3-carbonitrile] | 291 nM
CC(C)(C)N1CCC(n2cc([C@@H](Nc3cc(Cl)c4ncc(C#N)c(Nc5cccc(-n6nccn6)c5)c4c3)c3ccccc3)nn2)CC1 [Example 785, (S)-4-((3-(2H-1,2,3-triazol-2-yl)phenyl)amino)-6-(((1-(1-(tert-butyl)piperidin-4-yl)-1H-1,2,3-triazol-4-yl)(phenyl)methyl)amino)-8-chloroquinoline-3-carbonitrile] | 782 nM
CC1(C)C[C@H](n2cc([C@H](Nc3cc(Cl)c4ncc(C#N)c(Nc5ccc(F)c(Cl)c5)c4c3)c3ccccc3)nn2)CCN1 [Example 788, 8-chloro-4-((3-chloro-4-fluorophenyl)amino)-6-(((R)-(1-((R)-2,2-dimethylpiperidin-4-yl)-1H-1,2,3-triazol-4-yl)(phenyl)methyl)amino) quinoline-3-carbonitrile] | 1010 nM
CC1(C)C[C@H](n2cc([C@H](Nc3cc(Cl)c4ncc(C#N)c(Nc5ccc(F)c(Cl)c5)c4c3)c3ccccc3)nn2)CCN1 [Example 789, 8-chloro-4-((3-chloro-4-fluorophenyl)amino)-6-(((R)-(1-((R)-2,2-dimethylpiperidin-4-yl)-1H-1,2,3-triazol-4-yl)(phenyl)methyl)amino) quinoline-3-carbonitrile] | 657 nM
COc1cc2ncc(C#N)c(Nc3ccc(F)c(Cl)c3)c2cc1NC(c1ccc(F)cc1)c1cn(C)nn1 (stereo not shown) [Example 798, 4-((3-chloro-4-fluorophenyl)amino)-6-(((4-fluorophenyl)(1-methyl-1H-1,2,3-triazol-4-yl)methyl)amino)-7-methoxyquinoline-3-carbonitrile] | 7920 nM
N#Cc1cnc2ccc(NC(c3ccc(F)cc3)c3ccncn3)cc2c1Nc1ccc(F)c(Cl)c1 (stereo not shown) [Example 799, 4-((3-chloro-4-fluorophenyl)amino)-6-(((4-fluorophenyl)(pyrimidin-4-yl)methyl)amino)quinoline-3-carbonitrile] | 1480 nM
N#Cc1cnc2c(Cl)cc(NC(c3ccc(F)cc3)c3ncccn3)cc2c1Nc1ccc(F)c(Cl)c1 (stereo not shown) [Example 800, 8-chloro-4-((3-chloro-4-fluorophenyl)amino)-6-(((4-fluorophenyl)(pyrimidin-2-yl)methyl)amino)quinoline-3-carbonitrile] | > 10000 nM

More lines, now with the values ahead:

IC50 | Compound
1070 nM | N#Cc1cnc2c(Cl)cc(NC(c3ccc(F)cc3)c3cnccn3)cc2c1Nc1ccc(F)c(Cl)c1 (stereo not shown) [Example 801, 8-chloro-4-((3-chloro-4-fluorophenyl)amino)-6-(((4-fluorophenyl)(pyrazin-2-yl)methyl)amino)quinoline-3-carbonitrile]
437 nM | N#Cc1cnc2c(Cl)cc(NC(c3ccc(F)cc3)c3cocn3)cc2c1Nc1ccc(F)c(Cl)c1 (stereo not shown) [Example 807, 8-chloro-4-((3-chloro-4-fluorophenyl)amino)-6-(((4-fluorophenyl)(oxazol-4-yl)methyl)amino)quinoline-3-carbonitrile]
12 nM | N#Cc1cnc2c(Cl)cc(N[C@@H](c3ccc(F)cc3)c3cn(C4COC4)nn3)cc2c1Nc1ccc(F)c(Cl)c1 [Example 810, (S)-8-chloro-4-((3-chloro-4-fluorophenyl)amino)-6-(((4-fluorophenyl)(1-(oxetan-3-yl)-1H-1,2,3-triazol-4-yl)methyl)amino)quinoline-3-carbonitrile]
34 nM | CC(C)(C)n1cc([C@@H](Nc2cc(Cl)c3ncc(C#N)c(Nc4ccc(F)c(Cl)c4)c3c2)c2ccc(F)cc2)nn1 [Example 811, (S)-6-(((1-(tert-butyl)-1H-1,2,3-triazol-4-yl)(4-fluorophenyl)methyl)amino)-8-chloro-4-((3-chloro-4-fluorophenyl)amino)quinoline-3-carbonitrile]
794 nM | CC(C)(CC(=O)O)n1cc([C@@H](Nc2cc(Cl)c3ncc(C#N)c(Nc4ccc(F)c(Cl)c4)c3c2)c2ccc(F)cc2)nn1 [Example 812, (S)-3-(4-(((8-chloro-4-((3-chloro-4-fluorophenyl)amino)-3-cyanoquinolin-6-yl)amino)(4-fluorophenyl)methyl)-1H-1,2,3-triazol-1-yl)-3-methylbutanoic acid]
7 nM | N#Cc1cnc2c(Cl)cc(NC(c3ccc(F)cc3)c3cn(C[C@H]4CCCN4)nn3)cc2c1Nc1ccc(F)c(Cl)c1 (stereo partly drawn) [Example 817, 8-chloro-4-((3-chloro-4-fluorophenyl)amino)-6-(((4-fluorophenyl)(1-(((R)-pyrrolidin-2-yl)methyl)-1H-1,2,3-triazol-4-yl)methyl)amino)quinoline-3-carbonitrile]
447 nM | CN(C)C(=O)N1CCC[C@@H]1Cn1cc(C(Nc2cc(Cl)c3ncc(C#N)c(Nc4ccc(F)c(Cl)c4)c3c2)c2ccc(F)cc2)nn1 (stereo partly drawn) [Example 818, (2R)-2-((4-(((8-chloro-4-((3-chloro-4-fluorophenyl)amino)-3-cyanoquinolin-6-yl)amino)(4-fluorophenyl)methyl)-1H-1,2,3-triazol-1-yl)methyl)-N,N-dimethylpyrrolidine-1-carboxamide]
23 nM | CCN1CCC(n2cc([C@@H](Nc3cc(Cl)c4ncc(C#N)c(Nc5ccc(F)c(Cl)c5)c4c3)c3ccc4ccccc4c3)nn2)CC1 [Example 820, (S)-8-chloro-4-((3-chloro-4-fluorophenyl)amino)-6-(((1-(1-ethylpiperidin-4-yl)-1H-1,2,3-triazol-4-yl)(naphthalen-2-yl)methyl)amino)quinoline-3-carbonitrile]
21 nM | N#Cc1cnc2c(Cl)cc(N[C@@H](c3ccc(F)cc3)c3cn(C4CCN(C5CC5)CC4)nn3)cc2c1Nc1ccc(F)c(Cl)c1 [Example 821, (S)-8-chloro-4-((3-chloro-4-fluorophenyl)amino)-6-(((1-(1-cyclopropylpiperidin-4-yl)-1H-1,2,3-triazol-4-yl)(4-fluorophenyl)methyl)amino) quinoline-3-carbonitrile]
